Laboratory results as given in patent publication US6914045B2, “Glycopeptide antibiotics” (Wyeth Holdings Corporation, priority 2001, dated 2005).
In brackets after ≈: the same amount, converted by molar mass. One block for each compound: values may come before it.

Columns and labels:
Assay in all cases: in vitro antibacterial evaluation, MIC by broth dilution
Assay type in all cases: cell-based
Enterococcus sp. = details: broth dilution, 18 hours at 35° C.
Method in brief: (§1)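 MIC = lowest antibiotic concentration preventing visible growth; inoculum 5×10^5 CFU/mL; drug range 64-0.06 μg/mL; Muller-Hinton II […]; NCCLS M7-A2 guidance.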

Staphylococcus sp. = details: broth dilution, 18 hours at 35° C.; for MIC Staphylococcus aureus (ATCC 29213): strain ATCC 29213; for MIC Staphylococcus aureus (GC 1131): strain GC 1131; for MIC Staphylococcus aureus (GC 3051): strain GC 3051; for MIC Staphylococcus aureus (GC 3053): strain GC 3053; for MIC Staphylococcus aureus (GC 4541): strain GC 4541; for MIC Staphylococcus aureus (GC 4542): strain GC 4542; for MIC Staphylococcus aureus-SMITH (GC 4543): strain GC 4543; for MIC Staphylococcus aureus (GC 4544): strain GC 4544; for MIC Staphylococcus aureus (GC 4545): strain GC 4545; for MIC Staphylococcus haemolyticus (GC 4546): strain GC 4546; for MIC Coagulase Negative Staphylococcus (GC 4547): strain GC 4547; for MIC Coagulase Negative Staphylococcus (GC 4548): strain GC 4548; for MIC Coagulase Negative Staphylococcus (GC 4549): strain GC 4549; for MIC Coagulase Negative Staphylococcus (GC 4551): strain GC 4551; for MIC Coagulase Negative Staphylococcus (GC 6257): strain GC 6257
Method in brief: as §1

Streptococcus sp. = details: broth dilution, 18 hours at 35° C.
Method in brief: as §1

Escherichia coli = details: 18 hours at 35° C.
Method in brief: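 Broth dilution MIC per NCCLS M7-A2 in Mueller-Hinton II medium, inoculum 5×10^5 CFU/mL, antibiotic range 64-0.06 μg/mL. MIC taken as lowest concentration inhibiting growth.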

- MIC Enterococcus faecalis (ATCC 29212) (Enterococcus sp.; strain ATCC 29212): >128 µg/mL
- MIC Enterococcus faecalis (GC 2242) (Enterococcus sp.; strain GC 2242): >128 µg/mL
- MIC Enterococcus faecium (GC 2243) (Enterococcus sp.; strain GC 2243): >128 µg/mL
- MIC Enterococcus faecalis (GC 2691) (Enterococcus sp.; strain GC 2691): >128 µg/mL
- MIC Enterococcus faecalis (GC 3059) (Enterococcus sp.; strain GC 3059): >128 µg/mL
- MIC Enterococcus faecalis (GC 4552) (Enterococcus sp.; strain GC 4552): >128 µg/mL
- MIC Enterococcus faecalis (GC 4553) (Enterococcus sp.; strain GC 4553): >128 µg/mL
- MIC Enterococcus faecalis (GC 4554) (Enterococcus sp.; strain GC 4554): >128 µg/mL
- MIC Enterococcus faecium (GC 4556) (Enterococcus sp.; strain GC 4556): >128 µg/mL
- MIC Enterococcus faecium (GC 4557) (Enterococcus sp.; strain GC 4557): >128 µg/mL
- MIC Enterococcus avium (GC 4558) (Enterococcus sp.; strain GC 4558): 128 µg/mL (≈ 123 µM)
- MIC Enterococcus faecalis (GC 6189) (Enterococcus sp.; strain GC 6189): >128 µg/mL
- MIC Staphylococcus aureus (ATCC 29213) (Staphylococcus sp.): >128 µg/mL
- MIC Staphylococcus aureus (GC 1131) (Staphylococcus sp.): >128 µg/mL
- MIC Staphylococcus aureus (GC 3051) (Staphylococcus sp.): >128 µg/mL
- MIC Staphylococcus aureus (GC 3053) (Staphylococcus sp.): >128 µg/mL
- MIC Staphylococcus aureus (GC 4541) (Staphylococcus sp.): >128 µg/mL
- MIC Staphylococcus aureus (GC 4542) (Staphylococcus sp.): >128 µg/mL
- MIC Staphylococcus aureus-SMITH (GC 4543) (Staphylococcus sp.): >128 µg/mL
- MIC Staphylococcus aureus (GC 4544) (Staphylococcus sp.): >128 µg/mL
- MIC Staphylococcus aureus (GC 4545) (Staphylococcus sp.): >128 µg/mL
- MIC Coagulase Negative Staphylococcus (GC 4547) (Staphylococcus sp.): >128 µg/mL
- MIC Coagulase Negative Staphylococcus (GC 4548) (Staphylococcus sp.): >128 µg/mL
- MIC Coagulase Negative Staphylococcus (GC 4549) (Staphylococcus sp.): >128 µg/mL
- MIC Coagulase Negative Staphylococcus (GC 4551) (Staphylococcus sp.): >128 µg/mL
- MIC Coagulase Negative Staphylococcus (GC 6257) (Staphylococcus sp.): >128 µg/mL
- MIC Streptococcus pneumoniae (ATCC 6301) (Streptococcus sp.; strain ATCC 6301): >128 µg/mL
- MIC Streptococcus pneumoniae (GC 1894) (Streptococcus sp.; strain GC 1894): 128 µg/mL (≈ 123 µM)
- MIC Streptococcus pyogenes (GC 4563) (Streptococcus sp.; strain GC 4563): >128 µg/mL
- MIC Streptococcus agalactiae (GC 4564) (Streptococcus sp.; strain GC 4564): 128 µg/mL (≈ 123 µM)
- MIC Streptococcus pneumoniae (GC 4565) (Streptococcus sp.; strain GC 4565): 64 µg/mL (≈ 61.4 µM)
- MIC Escherichia coli (ATCC 25922) (Escherichia coli; strain ATCC 25922, broth dilution): >128 µg/mL
- MIC Escherichia coli (GC 4559) (Escherichia coli; strain GC 4559, broth dilution): >128 µg/mL
- MIC Escherichia coli (GC 4560) (Escherichia coli; strain GC 4560, broth dilution): 128 µg/mL (≈ 123 µM)
SMILES: CCC(=O)Nc1cc(CC2NC(=O)C(C(C)c3ccccc3)NC(=O)CNC(=O)C(CO)NC(=O)C(C(O)C3CNC(=N)N3C3OC(CO)C(O)C(O)C3O)NC(=O)C(C(O)C3CNC(=N)N3)NC2=O)ccc1O (stereo not drawn) [Example 14, Cyclo[glycyl-β-methylphenylalanyl-3-(propanamido)tyrosyl-3-(2-iminoimidazolidin-4-yl)seryl-3-(3-hexopyranosyl-2-iminoimidazolidin-4-yl)serylseryl]]
- MIC Staphylococcus haemolyticus (GC 4546) (Staphylococcus sp.): >128 µg/mL

- MIC Enterococcus avium (GC 4558) (Enterococcus sp.): 16 µg/mL (≈ 8.58 µM)
- MIC Enterococcus faecalis (ATCC 29212) (Enterococcus sp.): 64 µg/mL (≈ 34.3 µM)
- MIC Enterococcus faecalis (GC 2242) (Enterococcus sp.): 64 µg/mL (≈ 34.3 µM)
- MIC Enterococcus faecalis (GC 2691) (Enterococcus sp.): 16 µg/mL (≈ 8.58 µM)
- MIC Enterococcus faecalis (GC 3059) (Enterococcus sp.): 128 µg/mL (≈ 68.6 µM)
- MIC Enterococcus faecalis (GC 4552) (Enterococcus sp.): 64 µg/mL (≈ 34.3 µM)
- MIC Enterococcus faecalis (GC 4553) (Enterococcus sp.): 32 µg/mL (≈ 17.2 µM)
- MIC Enterococcus faecalis (GC 4554) (Enterococcus sp.): 64 µg/mL (≈ 34.3 µM)
- MIC Enterococcus faecalis (GC 6189) (Enterococcus sp.): 16 µg/mL (≈ 8.58 µM)
- MIC Enterococcus faecium (GC 2243) (Enterococcus sp.): 16 µg/mL (≈ 8.58 µM)
- MIC Enterococcus faecium (GC 4556) (Enterococcus sp.): 128 µg/mL (≈ 68.6 µM)
- MIC Enterococcus faecium (GC 4557) (Enterococcus sp.): 16 µg/mL (≈ 8.58 µM)
- MIC Enterococcus faecalis (ATCC 29212) (Enterococcus sp.; inoculum 5×10^5 CFU/mL, strain ATCC 29212): 64 µg/mL (≈ 34.3 µM)
- MIC Enterococcus faecalis (GC 2242) (Enterococcus sp.; inoculum 5×10^5 CFU/mL, strain GC 2242): 64 µg/mL (≈ 34.3 µM)
- MIC Enterococcus faecium (GC 2243) (Enterococcus sp.; inoculum 5×10^5 CFU/mL, strain GC 2243): 16 µg/mL (≈ 8.58 µM)
- MIC Enterococcus faecalis (GC 2691) (Enterococcus sp.; inoculum 5×10^5 CFU/mL, strain GC 2691): 16 µg/mL (≈ 8.58 µM)
- MIC Enterococcus faecalis (GC 3059) (Enterococcus sp.; inoculum 5×10^5 CFU/mL, strain GC 3059): 128 µg/mL (≈ 68.6 µM)
- MIC Enterococcus faecalis (GC 4552) (Enterococcus sp.; inoculum 5×10^5 CFU/mL, strain GC 4552): 64 µg/mL (≈ 34.3 µM)
- MIC Enterococcus faecalis (GC 4553) (Enterococcus sp.; inoculum 5×10^5 CFU/mL, strain GC 4553): 32 µg/mL (≈ 17.2 µM)
- MIC Enterococcus faecalis (GC 4554) (Enterococcus sp.; inoculum 5×10^5 CFU/mL, strain GC 4554): 64 µg/mL (≈ 34.3 µM)
- MIC Enterococcus faecium (GC 4556) (Enterococcus sp.; inoculum 5×10^5 CFU/mL, strain GC 4556): 128 µg/mL (≈ 68.6 µM)
- MIC Enterococcus faecium (GC 4557) (Enterococcus sp.; inoculum 5×10^5 CFU/mL, strain GC 4557): 16 µg/mL (≈ 8.58 µM)
- MIC Enterococcus avium (GC 4558) (Enterococcus sp.; inoculum 5×10^5 CFU/mL, strain GC 4558): 16 µg/mL (≈ 8.58 µM)
- MIC Enterococcus faecalis (GC 6189) (Enterococcus sp.; inoculum 5×10^5 CFU/mL, strain GC 6189): 16 µg/mL (≈ 8.58 µM)
- MIC Staphylococcus aureus (GC 1131) (Staphylococcus sp.; inoculum 5×10^5 CFU/mL): 64 µg/mL (≈ 34.3 µM)
- MIC Staphylococcus aureus (ATCC 29213) (Staphylococcus sp.): 64 µg/mL (≈ 34.3 µM)
- MIC Staphylococcus aureus (GC 1131) (Staphylococcus sp.): 64 µg/mL (≈ 34.3 µM)
- MIC Staphylococcus aureus (GC 3051) (Staphylococcus sp.): 64 µg/mL (≈ 34.3 µM)
- MIC Staphylococcus aureus (GC 3053) (Staphylococcus sp.): 32 µg/mL (≈ 17.2 µM)
- MIC Staphylococcus aureus (GC 4541) (Staphylococcus sp.): 64 µg/mL (≈ 34.3 µM)
- MIC Staphylococcus aureus (GC 4542) (Staphylococcus sp.): 64 µg/mL (≈ 34.3 µM)
- MIC Staphylococcus aureus-SMITH (GC 4543) (Staphylococcus sp.): 64 µg/mL (≈ 34.3 µM)
- MIC Staphylococcus aureus (GC 4544) (Staphylococcus sp.): 64 µg/mL (≈ 34.3 µM)
- MIC Staphylococcus aureus (GC 4545) (Staphylococcus sp.): 64 µg/mL (≈ 34.3 µM)
- MIC Coagulase Negative Staphylococcus (GC 4547) (Staphylococcus sp.): 128 µg/mL (≈ 68.6 µM)
- MIC Coagulase Negative Staphylococcus (GC 4548) (Staphylococcus sp.): 16 µg/mL (≈ 8.58 µM)
- MIC Coagulase Negative Staphylococcus (GC 4549) (Staphylococcus sp.): 64 µg/mL (≈ 34.3 µM)
- MIC Coagulase Negative Staphylococcus (GC 4551) (Staphylococcus sp.): 32 µg/mL (≈ 17.2 µM)
- MIC Coagulase Negative Staphylococcus (GC 6257) (Staphylococcus sp.): 32 µg/mL (≈ 17.2 µM)
- MIC Streptococcus agalactiae (GC 4564) (Streptococcus sp.): <0.12 µg/mL
- MIC Streptococcus pneumoniae (ATCC 6301) (Streptococcus sp.): <0.12 µg/mL
- MIC Streptococcus pneumoniae (GC 1894) (Streptococcus sp.): <0.12 µg/mL
- MIC Streptococcus pneumoniae (GC 4565) (Streptococcus sp.): <0.12 µg/mL
- MIC Streptococcus pyogenes (GC 4563) (Streptococcus sp.): 0.5 µg/mL (≈ 0.268 µM)
- MIC Streptococcus pneumoniae (ATCC 6301) (Streptococcus sp.; inoculum 5×10^5 CFU/mL, strain ATCC 6301): <0.12 µg/mL
- MIC Streptococcus pneumoniae (GC 1894) (Streptococcus sp.; inoculum 5×10^5 CFU/mL, strain GC 1894): <0.12 µg/mL
- MIC Streptococcus pyogenes (GC 4563) (Streptococcus sp.; inoculum 5×10^5 CFU/mL, strain GC 4563): 0.5 µg/mL (≈ 0.268 µM)
- MIC Streptococcus agalactiae (GC 4564) (Streptococcus sp.; inoculum 5×10^5 CFU/mL, strain GC 4564): <0.12 µg/mL
- MIC Streptococcus pneumoniae (GC 4565) (Streptococcus sp.; inoculum 5×10^5 CFU/mL, strain GC 4565): <0.12 µg/mL
- MIC Escherichia coli (ATCC 25922) (Escherichia coli): >128 µg/mL
- MIC Escherichia coli (GC 4559) (Escherichia coli): >128 µg/mL
- MIC Escherichia coli (GC 4560) (Escherichia coli): 128 µg/mL (≈ 68.6 µM)
SMILES: CC(c1ccccc1)C1NC(=O)CNC(=O)C(CO)NC(=O)C(C(O)C2CNC(=N)N2C2OC(CO)C(O)C(O)C2O)NC(=O)C(C(O)C2CNC(=N)N2)NC(=O)C(Cc2ccc(OC3OC(CO)C(OC4OC5COC(c6ccc(C(=O)c7cc(I)c(I)c(I)c7)cc6)OC5C(O)C4O)C(O)C3O)cc2)NC1=O (stereo not shown) [Example 187]
- MIC Staphylococcus haemolyticus (GC 4546) (Staphylococcus sp.): 128 µg/mL (≈ 68.6 µM)
